Data published in article PMC9697446 (International Journal of Molecular Sciences, 2022).

Experiments:
[1] = Oxygen radical absorbance capacity assay (ORAC-FL); conditions: Trolox equivalent, Trolox = 1; means ± SEM (n = 3)
From the text: The method is based on the measurement of the fluorescence intensity characterizing the degree of destruction of the fluorescence probe under the action of peroxyl radicals.
The peroxyl radical scavenging capacity of the test compounds was characterized in terms of the Trolox equivalent (TE), which is equal to the ratio of the Trolox concentration to the concentration of a test compound when they show equal fluorescence intensities in the assay. The peroxyl radical scavenging capacity of Trolox was set as 1 [67, 68].
2,2´-Azobis(amidinopropane) dihydrochloride (AAPH), (±)-6-hydroxy-2,5,7,8-tetramethylchroman-2-carboxylic acid (Trolox), and fluorescein (FL) were purchased from Sigma-Aldrich. The reaction was carried out at 37 °C in 75 mM K,Na phosphate buffer (pH 7.4), and the final reaction mixture was 200 µL. The test compounds and the Trolox standard were dissolved in DMSO to 10 mM and further diluted in a 75 mM K,Na phosphate buffer (pH 7.4). The final concentrations were 0.1–1 µM for the test compounds and 1–6 µM for the Trolox. The blank was composed of 20 µL of a 75 mM K,Na phosphate buffer (pH 7.4) containing 20% (v/v) DMSO, 120 µL of FL and 60 µL of AAPH, and it was added in each assay. The antioxidant (20 µL) and FL (120 µL, final concentration: 70 nM) solutions were placed in a black 96-well microplate and were preincubated for 15 min at 37 °C. A solution of AAPH (60 µL, final concentration: 12 mM) was then added rapidly using a multichannel pipette. The microplate was immediately placed in the reader, and the fluorescence was recorded every minute for 100 min. The microplate was automatically shaken prior to each reading. The Trolox standard curve was also obtained in each assay. All reactions were carried out in triplicate, and at least three different assays were performed for each sample.
The antioxidant curves (fluorescence vs. time) were first normalized to the curve of the blank (without the antioxidant) corresponding to the same assay, and the area under the fluorescence decay curve (AUC) was calculated. The net AUC corresponding to a sample was calculated by subtracting the AUC corresponding to the blank. Regression equations were calculated by plotting the net AUC against the antioxidant concentration. The ORAC Tolox equivalent value (TE) was obtained by dividing the slope of the latter curve by the slope of the Trolox curve obtained in the same assay. The ability of Trolox to scavenge the peroxyl radical was equal to 1 [64, 65]. […] The data are expressed as means ± SEM.

[2] = ABTS radical cation scavenging assay; conditions: 1 h incubation, means ± SEM (n = 3); for IC50: 50% reduction of ABTS radical; for ABTS Scavenging Activity, TEAC Value: Trolox equivalent antioxidant capacity
Method: The ABTS assay is based on the direct binding of a model ABTS radical cation (2,2′-azino-bis-(3-ethylbenzothiazoline-6-sulfonate), ABTS^•+) by antioxidants. The measurements were performed as previously described in detail.
The radical scavenging activity was expressed as TEAC values (Trolox equivalent antioxidant capacity) and determined as the ratio between the slopes obtained from the linear correlation of the ABTS radical absorbance with the concentrations of the test compounds and Trolox.
The radical scavenging activity of the compounds was assessed using an ABTS radical decolorization assay. The procedure followed the reported protocol with minor modifications. ABTS (2,2ʹ-azino-bis-(3-ethylbenzothiazoline-6-sulfonic acid) diammonium salt) was purchased from TCI (Tokyo, Japan), while potassium persulfate (di-potassium peroxodisulfate), Trolox (6-hydroxy-2,5,7,8-tetramethylchroman-2-carboxylic acid), catechol, and DMSO were received from Sigma-Aldrich Chemical Co. (St. Louis, MO, USA). The ethanol was HPLC grade. Aqueous solutions were prepared using deionized water.
Trolox was used as the standard reference compound. Catechol was used as the positive control. All test and reference compounds were dissolved in DMSO. The final concentration of DMSO in the reaction mixture was 4% (v/v).
The solution of ABTS radical cation (ABTS^•+) was produced by mixing a 7 mM ABTS stock solution with a 2.45 mM aqueous solution of potassium persulfate in equal quantities and allowing them to react for 12–16 h at room temperature in the dark. At the time of activity determination, the ABTS^•+ solution was diluted with ethanol to adjust it to an absorbance value of about 0.80 ± 0.05 at 734 nm. A fresh working solution of ABTS^•+ was prepared for each assay.
The radical scavenging capacity of the compounds was analyzed by mixing 10 μL of test compound with 240 μL of ABTS^•+ working solution. The reduction in absorbance was measured spectrophotometrically at 734 nm using an xMark microplate UV/VIS spectrophotometer (Bio-Rad, Hercules, CA, USA). The reaction was monitored for an hour at 10 min intervals. Data were given for 1 h of incubation of compounds with ABTS^•+. EtOH blanks were run in each assay. The results were obtained from three replicates of each sample and three independent experiments.
The antioxidant capacity as a Trolox equivalent (TEAC values) was determined as the ratio between the slopes obtained from the linear correlation of concentrations of test compounds and Trolox with absorbance of ABTS radical.

EeAChE PAS = molecular target: T1, EeAChE PAS (Electrophorus electricus, UniProt O42275); assay: biochemical; format: binding; conditions: EeAChE 7 µM, PI 8 µM, means ± SEM (n = 3); for inhibition at 3 µM: compound 3 µM, read-out: PI Displacement, 3 µM; for inhibition at 20 µM: compound 20 µM, read-out: PI Displacement, 20 µM
T1 construct: purchased Sigma-Aldrich type VI-S
Method: (§1) PIand donepezil were purchased from Sigma-Aldrich. […] As the source of the enzyme, electric eel (Elecrophorus electricus) AChE (EeAChE, type VI-S, lyophilized powder, Sigma-Aldrich, Saint Louis, MO, USA) was used. The applicability of this enzyme was shown earlier
To determine the percentage of displacement of PI from the EeAChE PAS, EeAChE (with a final concentration of 7 μM) was incubated with the test compound at a concentration of 3 and 20 μM in 1 mM Tris-HCl buffer pH 8.0, 25 °C for 15 min. Next, PIsolution (with a final concentration of 8 μM) was added, the samples were incubated for 15 min, and the fluorescence spectrum (530 nm (exc.) and 600 nm (emiss.)) was taken. Donepezil and decamethonium were used as reference compounds. The blank contained PI of the same concentration in 1 mM Tris-HCl buffer pH 8.0. The measurements were carried out in triplicate on a FLUOStar Optima microplate reader).
The percentage of displacement of PIfrom the peripheral anionic site of AChE was calculated using the following formula:% Displacement = 100 − (IFAChE+Propidium+inhibitor/IFAChE+Propidium) × 100,(1) where IFAChE+Propidium is the fluorescence intensity of the propidium associated with AChE in the absence of the test compound (taken as 100%) and IFAChE+Propidium+inhibitor is the fluorescence intensity of the propidium associated with AChE in the presence of the test compound.

EeAChE = molecular target: T2, EeAChE (Electrophorus electricus, UniProt O42275); assay: biochemical; conditions: means ± SEM (n = 3); read-out: EeAChE Inhibition, IC50
T2 construct: purchased Sigma-Aldrich type VI-S
Method: We selected AChE from electric eels (Electrophorus electricus) for consistency with our other reports and because of its purity, specific activity, and lower cost compared to human AChE [64].
(§2) AChE and BChE activities were measured via the Ellman method. The assay solution consisted of 0.1 M K/Na phosphate buffer pH 7.5, 25 °C with the addition of 0.33 mM DTNB, 0.02 unit/mL of AChE or BChE and 1 mM of substrate (ATCh or BTCh, respectively). The assays were carried out with a reagent blank containing all components (except AChE orBChE) in order to account for the non-enzymatic hydrolysis of the substrate. In addition, an enzyme blank was included that contained all components except substrate to account for non-substrate sulfhydryl groups.
(§3) The test compounds were dissolved in DMSO, and the incubation mixture contained 2% (v/v) of the solvent. Enzyme inhibition was first assessed at a single concentration of 20 µM for each compound after a 5 min incubation at 25 °C in three separate experiments. […] The test compounds were added to the assay solution and preincubated at 25 °C with the enzymes for 5 min, followed by the addition of substrate. A parallel control was made for the assay solution with no inhibitor. Measurements were performed with a FLUOStar Optima microplate reader (BMG Labtech, Ortenberg, Germany). Each experiment was performed in triplicate. The results were expressed as the mean ± SEM. The reaction rates in the presence and absence of the inhibitor were compared, and the percent of residual enzyme activity due to the presence of test compounds was calculated.
as §1

equine serum BChE = molecular target: T3, equine serum BChE (Equus caballus, UniProt P81908); assay: biochemical; conditions: IC50 ± SEM, n = 3
T3 construct: the equine serum BChE, and the porcine liver CES; purchased Sigma-Aldrich; host or cells: equine serum
Method: (§4) The esterase profile was estimated using the human erythrocyteAChE, the equine serum BChE, and the porcine liver CES.
(§5) Human erythrocyte AChE, equine serum BChE, porcine liver CES, acetylthiocholine iodide (ATCh), butyrylthiocholine iodide (BTCh), 5,5′-dithio-bis-(2-nitrobenzoic acid) (DTNB), 4-nitrophenol acetate (4-NPA), and BNPP were purchased from Sigma-Aldrich (St. Louis, MO, USA).
as §2, §3

human erythrocyte AChE = molecular target: T4, human erythrocyte AChE (Homo sapiens, UniProt P22303); assay: biochemical; conditions: IC50 ± SEM, n = 3
T4 construct: The esterase profile was estimated using the human erythrocyteAChE; purchased Sigma-Aldrich; host or cells: human erythrocytes
Method: as §4, §5, §2, §3

porcine liver CES = assay: CES inhibition (4-nitrophenyl acetate hydrolysis); format: biochemical; conditions: ± SEM, n = 3;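 also: values are percent inhibition of CES activity not residual activity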
Method: as §4, §5
The assay solution consisted of 0.1 M K/Na phosphate buffer pH 8.0, 25 °C, with the addition of 1 mM 4-nitrophenyl acetate and 0.02 unit/mL of CES. The assays were carried out with a blank containing all components, except CES.
as §3

T1 sequence (O42275 24-633): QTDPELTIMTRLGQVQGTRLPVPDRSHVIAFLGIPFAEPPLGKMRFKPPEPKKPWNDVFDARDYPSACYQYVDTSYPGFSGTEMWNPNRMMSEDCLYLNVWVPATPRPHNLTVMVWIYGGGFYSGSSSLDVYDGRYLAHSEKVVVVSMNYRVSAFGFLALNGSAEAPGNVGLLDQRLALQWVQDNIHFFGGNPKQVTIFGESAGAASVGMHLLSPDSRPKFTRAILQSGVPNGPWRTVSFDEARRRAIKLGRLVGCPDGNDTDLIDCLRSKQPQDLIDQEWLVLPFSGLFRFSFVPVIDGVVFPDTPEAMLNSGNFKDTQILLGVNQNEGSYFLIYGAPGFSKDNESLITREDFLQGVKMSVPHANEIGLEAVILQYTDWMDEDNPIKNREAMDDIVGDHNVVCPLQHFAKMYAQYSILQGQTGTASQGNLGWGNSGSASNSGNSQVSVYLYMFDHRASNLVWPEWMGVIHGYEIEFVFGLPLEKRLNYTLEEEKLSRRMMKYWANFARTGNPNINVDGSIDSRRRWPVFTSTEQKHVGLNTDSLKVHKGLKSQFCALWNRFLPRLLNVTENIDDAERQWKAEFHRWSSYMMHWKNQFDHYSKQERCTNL
T2 sequence (O42275 24-633): as above
T3 sequence (P81908 whole entry): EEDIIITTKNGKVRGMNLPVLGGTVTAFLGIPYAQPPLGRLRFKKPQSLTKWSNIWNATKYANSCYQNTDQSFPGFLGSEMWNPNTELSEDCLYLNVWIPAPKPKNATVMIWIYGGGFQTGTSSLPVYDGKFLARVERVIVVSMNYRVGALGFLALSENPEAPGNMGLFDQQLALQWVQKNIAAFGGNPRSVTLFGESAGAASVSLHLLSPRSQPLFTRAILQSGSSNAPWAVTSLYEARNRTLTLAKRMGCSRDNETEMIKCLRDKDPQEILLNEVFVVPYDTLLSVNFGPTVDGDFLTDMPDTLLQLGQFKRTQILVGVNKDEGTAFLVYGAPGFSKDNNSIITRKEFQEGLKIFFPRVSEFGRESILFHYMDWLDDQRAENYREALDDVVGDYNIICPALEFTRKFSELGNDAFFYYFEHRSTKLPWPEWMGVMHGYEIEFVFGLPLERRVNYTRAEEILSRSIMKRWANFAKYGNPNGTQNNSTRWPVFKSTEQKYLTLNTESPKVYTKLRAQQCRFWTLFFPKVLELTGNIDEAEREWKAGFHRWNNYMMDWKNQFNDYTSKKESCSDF
T4 sequence (P22303 32-617 isoform P22303-2 limits assumed): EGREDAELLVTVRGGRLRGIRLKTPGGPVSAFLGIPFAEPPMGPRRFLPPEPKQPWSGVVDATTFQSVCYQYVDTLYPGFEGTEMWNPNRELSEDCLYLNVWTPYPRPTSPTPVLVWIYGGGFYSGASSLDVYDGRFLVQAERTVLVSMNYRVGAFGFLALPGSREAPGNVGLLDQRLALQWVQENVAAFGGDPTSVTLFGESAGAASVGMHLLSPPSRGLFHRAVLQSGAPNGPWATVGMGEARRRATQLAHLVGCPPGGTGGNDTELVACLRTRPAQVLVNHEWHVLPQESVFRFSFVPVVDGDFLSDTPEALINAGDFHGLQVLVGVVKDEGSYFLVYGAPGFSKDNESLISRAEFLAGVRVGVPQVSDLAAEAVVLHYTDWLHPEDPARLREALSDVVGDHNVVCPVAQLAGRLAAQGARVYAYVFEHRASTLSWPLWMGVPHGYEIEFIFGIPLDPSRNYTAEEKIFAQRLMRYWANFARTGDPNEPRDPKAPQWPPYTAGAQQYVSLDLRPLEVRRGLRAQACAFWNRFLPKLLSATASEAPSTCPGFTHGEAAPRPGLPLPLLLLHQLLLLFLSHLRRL

Row | SMILES | ORAC, TE Value [1] | IC50 [2] [µM] | ABTS Scavenging Activity, TEAC Value [2] | inhibition at 3 µM (EeAChE PAS) [%] | inhibition at 20 µM (EeAChE PAS) [%] | IC50 (EeAChE) [µM] | IC50 (equine serum BChE) [µM] | IC50 (human erythrocyte AChE) [µM] | CES inhibition at 20 µM (porcine liver CES) [%]
1 | Oc1ccccc1O [Catechol, catechol, reference compound] | 6.6 ± 0.2 | 16.7 ± 1.2 | 1.20 ± 0.11 | – | – | – | – | – | –
2 | CC1CCc2c(c3cc(C(F)(F)F)ccc3n2CCC(=O)N2c3ccc(N(C)C)cc3Sc3cc(N(C)C)ccc32)C1 (stereo not shown) [Compound 4g] | 6.5 ± 0.1 | 30.8 ± 2.9 | 0.70 ± 0.04 | 20.9 ± 1.3 | 32.8 ± 0.7 | 0.8 ± 0.05 | 20.3 ± 0.21 | 3.56 ± 0.09 | 1.4 ± 0.2
3 | CN(C)c1ccc2c(c1)Sc1cc(N(C)C)ccc1N2C(=O)CCn1c2c(c3cc(OC(F)(F)F)ccc31)CCCCC2 [Compound 4l] | 8.4 ± 0.8 | 20.7 ± 1.7 | 0.98 ± 0.09 | 14.9 ± 0.1 | 17 ± 1.2 | 3.4 ± 0.21 | 42.2 ± 2.93 | 15 ± 1.12 | 7.6 ± 0.8
4 | Cc1c(C)c2c(c(C)c1O)CCC(C)(C(=O)O)O2 (stereo not shown) [Trolox, 6-hydroxy-2,5,7,8-tetramethylchroman-2-carboxylic acid, reference compound] | 1.00 | 20.4 ± 1.7 | 1.00 | – | – | – | – | – | –
5 | c1ccc2c(c1)[nH]c1ccccc12 [carbazole, reference compound] | – | – | – | – | – | – | – | – | 9.4 ± 1.0
